Results on 62 molecules are retold here after US11780845B2 (Relay Therapeutics, Inc., priority 2019, dated 2023).

FGFR2, sequence (P21802 22-821): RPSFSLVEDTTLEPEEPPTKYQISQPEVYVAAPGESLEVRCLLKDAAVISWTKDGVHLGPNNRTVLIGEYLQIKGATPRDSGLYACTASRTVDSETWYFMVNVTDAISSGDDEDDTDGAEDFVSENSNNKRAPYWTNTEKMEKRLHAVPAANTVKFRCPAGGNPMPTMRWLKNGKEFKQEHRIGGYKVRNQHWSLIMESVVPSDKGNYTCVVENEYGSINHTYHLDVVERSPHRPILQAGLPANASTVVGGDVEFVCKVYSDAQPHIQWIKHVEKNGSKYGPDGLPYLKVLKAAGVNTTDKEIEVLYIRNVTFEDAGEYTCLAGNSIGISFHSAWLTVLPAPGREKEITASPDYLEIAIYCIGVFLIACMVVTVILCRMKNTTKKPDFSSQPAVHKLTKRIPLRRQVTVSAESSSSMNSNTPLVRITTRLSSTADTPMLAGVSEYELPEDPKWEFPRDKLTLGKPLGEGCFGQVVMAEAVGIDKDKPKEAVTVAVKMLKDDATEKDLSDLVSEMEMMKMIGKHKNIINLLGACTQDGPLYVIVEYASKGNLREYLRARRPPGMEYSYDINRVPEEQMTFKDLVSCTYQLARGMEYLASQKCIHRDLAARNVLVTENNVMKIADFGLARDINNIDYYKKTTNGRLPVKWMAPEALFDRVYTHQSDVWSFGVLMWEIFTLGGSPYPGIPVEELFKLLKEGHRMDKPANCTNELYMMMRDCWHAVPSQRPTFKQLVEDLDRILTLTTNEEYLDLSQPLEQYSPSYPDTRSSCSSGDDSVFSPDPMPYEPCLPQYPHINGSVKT

The test concerns the target FGFR2 (Homo sapiens (Human), UniProt P21802). Briefly: FGFR2 Biochemical Caliper Assay. How it is done: Compounds of the present invention were also tested in a FGFR2 Biochemical Caliper Assay. Compounds were prepared in 10 mM DMSO solution and serially diluted into 11 concentrations by 3-fold dilution. […] 5 uL of ATP solution (100 uM) was added to start the reaction and the plate was incubated for 90 minutes, then 70 uL of stopping buffer (0.5M EDTA) was added to terminate the reaction. Each well was analyzed using EZ reader.
For the molecule `C=C(C)C(=O)Nc1ccc(-c2c(-c3ccc(S(=N)(=O)NC4CCCC4)cc3)c3c(N)ncnc3n2C)cc1` (centres unmarked) [Example 350], the IC50 lay within 1 to 100 µM.
In turn, `C=C(C)C(=O)Nc1ccc(-c2c(-c3ccc4c(c3)CC(=O)N4)c3c(N)ncnc3n2C)cc1` [Example 125] yielded an IC50 of 1 to 100 µM.
`Cn1c(-c2ccc(N3CCC=CS3(=O)=O)cc2)c(-c2ccc(C(=O)N3CCCC3)cc2)c2c(N)ncnc21` [Example 544] had an IC50 of 1 to 100 µM.
With `C=CC(=O)Nc1cccc(-c2c(-c3ccc(Oc4cccc(C)n4)cc3)c3c(N)ncnc3n2C)c1` [Example 22], the concentration for half-maximal inhibition (IC50) is below 0.1 µM.
With `C=C(C)C(=O)Nc1ccc(-c2c(-c3ccc(Nc4ncccn4)cc3)c3c(N)ncnc3n2C)cc1` [Example 59] the figure was 0.1 to 0.25 µM; with `C=C(C)C(=O)Nc1ccc(-c2c(-c3ccc(Oc4ccc(Cl)c(C)n4)cc3)c3c(N)ncnc3n2C)cc1` [Example 122], 0.25 to 1 µM; with `C=C(C)C(=O)Nc1ccc(-c2c([C@H]3CC[C@H](C(=O)N4CCCC4)CC3)c3c(N)ncnc3n2C)cc1` [Example 578], 1 to 100 µM.
For `Cn1c(-c2ccc(N3CC=CC3=O)cc2)c(-c2ccc(C(=O)N3CCCC3)cc2)c2c(N)ncnc21` [Example 557], the IC50 was 1 to 100 µM.
Molecule `C=C(C)C(=O)Nc1ccc(-c2c(-c3ccc(CN4CCC(F)(F)CC4)c(F)c3)c3c(N)ncnc3n2C)cc1` [Example 159] registered an IC50 of 1 to 100 µM.
With `CC#CC(=O)Nc1ccc(-c2c(-c3ccc(Oc4ncccn4)cc3)c3c(N)ncnc3n2C)cc1` [Example 84] the figure was below 0.1 µM.
The result for `C=CC(=O)Nc1ccc(-c2c(-c3ccc(Oc4cc(C)ccn4)c(OC)c3)c3c(N)ncnc3n2C)cc1` [Example 34] reads below 0.1 µM.
With `C=C(C)C(=O)Nc1ccc(-c2c(-c3ccc(OCC4CC4)cc3)c3c(N)ncnc3n2C)cc1` [Example 133] the figure was 0.1 to 0.25 µM.
Take `C=C(C)C(=O)Nc1ccc(-c2c(-c3ccc(CC(=O)N(C)C)cc3)c3c(N)ncnc3n2C)cc1` [Example 130]: the half-inhibitory concentration (IC50) was 1 to 100 µM.
On to `C=C(C)C(=O)Nc1ccc(-c2c(-c3ccc(-c4ncc[nH]4)cc3)c3c(N)ncnc3n2C)cc1` [Example 149], for which the half-inhibitory concentration (IC50) lay in the range of 0.25 to 1 µM.
Molecule `C=C(C)C(=O)Nc1ccc(-c2c(-c3ccc(Oc4nccc(C)n4)c(N(C)C)c3)c3c(N)ncnc3n2C)cc1` [Example 504] came in with a half-inhibitory concentration (IC50) of 1 to 100 µM.
With `C=C(C)C(=O)Nc1ccc(-c2c(-c3ccc(C(=O)N(CCN(C)C)CC(F)(F)F)cc3)c3c(N)ncnc3n2C)cc1` [Example 454] the figure was 0.25 to 1 µM; with `C=C(C)C(=O)Nc1ccc(-c2c(-c3ccc(=O)n(C4CC4)c3)c3c(N)ncnc3n2C)cc1` [Example 275], 1 to 100 µM.
For `C=C(C)C(=O)Nc1ccc(-c2c(-c3ccc(OCC)c(OCC)c3)c3c(N)ncnc3n2C)cc1` [Example 196], the 50% inhibitory concentration (IC50) was in the range of 1 to 100 µM.
As for `C=CC(=O)N(C)c1ccc(-c2c(-c3ccc(Oc4cccc(C)n4)cc3)c3c(N)ncnc3n2C)cc1` [Example 9], the IC50 is below 0.1 µM.
`C=C(C)C(=O)Nc1ccc(-c2c(-c3ccc(C(=O)N4CCCC4)cc3)c3c(N)ncnc3n2C)c(C2CC2)c1` [Example 518] yielded an IC50 below 0.1 µM.
The result for `C=C(C)C(=O)Nc1ccc(-c2c(-c3ccc(N4CCCC4=O)nc3)c3c(N)ncnc3n2C)cc1` [Example 208] reads 1 to 100 µM.
Molecule `C=C(C)C(=O)Nc1ccc(-c2c(-c3ccc(S(C)(=O)=O)cc3C)c3c(N)ncnc3n2C)cc1` [Example 181] showed an IC50 of 1 to 100 µM.
The molecule `C=CC(=O)Nc1ccc(-c2c(-c3ccc(Oc4cccc(C)n4)cc3)c3c(N)ncnc3n2C)cc1C` [Example 21] yielded a 50% inhibitory concentration (IC50) below 0.1 µM.
On to `C=C(C)C(=O)Nc1ccc(-c2c(-c3ccc(C(=O)N4CCCC4)cn3)c3c(N)ncnc3n2C)cc1` [Example 596], for which the IC50 is below 0.1 µM.
As to `C=C(C)C(=O)Nc1ccc(-c2c(-c3cc(N)c(Oc4ccccn4)c(F)c3)c3c(N)ncnc3n2C)cc1` [Example 127], the IC50 fell in the range of 0.1 to 0.25 µM.
Turning to `C=C(C)C(=O)Nc1ccc(-c2c(-c3ccc(C(=O)NCCCOC)cc3)c3c(N)ncnc3n2C)cc1` [Example 333], the IC50 fell in the range of 0.1 to 0.25 µM.
With `C=C(C)C(=O)Nc1ccc(-c2c(-c3ccc(-c4nnc(NC)s4)cc3)c3c(N)ncnc3n2C)cc1` [Example 280] the figure was 0.1 to 0.25 µM.
The result for `C=CC(=O)N1CCC(n2cc(-c3c(-c4ccc(Oc5ccccc5)c(OC)c4)c4c(N)ncnc4n3C)cn2)CC1` [Example 612] reads 0.1 to 0.25 µM; that for `C=CC(=O)Nc1ccc(-c2c(C3=CCN(C(=O)C(F)(F)F)CC3)c3c(N)ncnc3n2C)cc1` [Example 74], 0.25 to 1 µM; that for `C=C(C)C(=O)Nc1ccc(-c2c(-c3cnn(C4CN(C)C4)c3)c3c(N)ncnc3n2C)cc1` [Example 163], 1 to 100 µM.
With `C=C(C)C(=O)Nc1ccc(-c2c(-c3ccc4c(ccn4S(C)(=O)=O)c3)c3c(N)ncnc3n2C)cc1` [Example 281] the figure was 1 to 100 µM; with `C=C(C)C(=O)Nc1ccc(-c2c(-c3ccc(S(=O)(=O)NC4CCCC4)cc3)c3c(N)ncnc3n2C)cc1` [Example 325], 1 to 100 µM; with `C=C(C)C(=O)Nc1ccc(-c2c(-c3ccc(-c4nccs4)cc3)c3c(N)ncnc3n2C)cc1` [Example 178], 0.25 to 1 µM.
Molecule `C=C(C)C(=O)Nc1ccc(-c2c(-c3ccc(Oc4ncc(F)cn4)nc3)c3c(N)ncnc3n2C)cc1` [Example 453] displayed an IC50 of 1 to 100 µM.
The result for `C=CC(=O)N1CCC(n2cc(-c3c(-c4ccc(Cl)c(OC)c4)c4c(N)ncnc4n3C)cn2)CC1` [Example 609] reads 0.25 to 1 µM; that for `C=CC(=O)Nc1ccc(-c2c(-c3ccc(Sc4ncccn4)cc3)c3c(N)ncnc3n2C)cc1` [Example 68], below 0.1 µM; that for `C=C(C)C(=O)Nc1ccc(-c2c(-c3ccc(Cn4cc(C)cn4)c(F)c3)c3c(N)ncnc3n2C)cc1` [Example 158], 1 to 100 µM.
Regarding `C=C(C)C(=O)Nc1ccc(-c2c(-c3ccc(S(=O)(=O)N4CCCC4)cc3)c3c(N)ncnc3n2C)cc1` [Example 85], the half-inhibitory concentration (IC50) was in the range of 0.1 to 0.25 µM.
With `C=C(C)C(=O)Nc1ccc(-c2c(-c3ccc(C(=O)N4CCCC4)cc3Cl)c3c(N)ncnc3n2C)cc1` [Example 587] the figure was 1 to 100 µM; with `C=C(C)C(=O)Nc1ccc(-c2c(-c3ccc(C(=O)N(C)C4CC(F)(F)C4)cc3)c3c(N)ncnc3n2C)cc1` [Example 273], 0.25 to 1 µM.
Take `C=CC(=O)N1CCCc2cc(-c3c(-c4ccc(Oc5cccc(C)n5)c(OC)c4)c4c(N)ncnc4n3C)ccc21` [Example 3]: the IC50 is below 0.1 µM.
The molecule `C=C(C)C(=O)Nc1ccc(-c2c(-c3ccc(Oc4ncc(OC)cn4)cc3)c3c(N)ncnc3n2C)cc1` [Example 450] registered a half-maximal inhibitory concentration (IC50) of 0.25 to 1 µM.
The result for `C=C(C)C(=O)Nc1ccc(-c2c(-c3ccc(C(=O)N4CCCC4)cc3)c3c(N)ncnc3n2C)c([C@H]2CCCO2)c1` (single isomer, unassigned) [Example 509] reads 0.25 to 1 µM.
As to `C=C(C)C(=O)Nc1ccc(-c2c(-c3ccc(C(=O)NCC4COCCN4C)cc3)c3c(N)ncnc3n2C)cc1` (centres unmarked) [Example 392], the IC50 is 1 to 100 µM.
In turn, `C=C(C)C(=O)Nc1ccc(-c2c(-c3ccc(C(=O)N4CCCC4)cc3)c3c(N)ncnc3n2C)cc1C` [Example 407] displayed a half-inhibitory concentration (IC50) of 1 to 100 µM.
On to `C=C(C)C(=O)Nc1ccc(-c2c(-c3ccc(C(=O)N4CCC(F)(F)CC4)cc3)c3c(N)ncnc3n2C)cc1` [Example 142], for which the IC50 is 1 to 100 µM.
For `C=C(C)C(=O)Nc1ccc(-c2c(C3=CCC(C(=O)NCC4CCC4)CC3)c3c(N)ncnc3n2C)cc1` (centres unmarked) [Example 402], the concentration for half-maximal inhibition (IC50) is 0.1 to 0.25 µM.
For the molecule `C=C(C)C(=O)Nc1ccc(-c2c(-c3ccc(Oc4ccc(Cl)cn4)cc3)c3c(N)ncnc3n2C)cc1` [Example 97], the IC50 lay within 0.25 to 1 µM.
Turning to `C=C(C)C(=O)Nc1ccc(-c2c(-c3ccc(N(C)C)nc3)c3c(N)ncnc3n2C)cc1` [Example 131], the concentration for half-maximal inhibition (IC50) lay in the range of 1 to 100 µM.
For the molecule `C=C(C)C(=O)Nc1ccc(-c2c(-c3cc(OC)ncc3OC)c3c(N)ncnc3n2C)cc1` [Example 144], the 50% inhibitory concentration (IC50) fell in the range of 1 to 100 µM.
On to `CCC(=O)Nc1ccc(-c2c(-c3ccc(Oc4ncccn4)c(OC)c3)c3c(N)ncnc3n2C)cc1` [Example 43], for which the half-maximal inhibitory concentration (IC50) was 1 to 100 µM.
The molecule `C=CC(=O)Nc1ccc(-c2c(-c3ccc(N(C)c4ncccn4)cc3)c3c(N)ncnc3n2C)cc1` [Example 61] showed a concentration for half-maximal inhibition (IC50) below 0.1 µM.
Molecule `C=C(C)C(=O)Nc1ccc(-c2c(-c3ccc(C(=O)N4CC[C@@H](OC)C4)cc3)c3c(N)ncnc3n2C)cc1` [Example 252] returned a 50% inhibitory concentration (IC50) of 0.25 to 1 µM.
With `C=C(C)C(=O)Nc1ccc(-c2c(-c3ccc(N(C)c4ncccn4)cc3)c3c(N)ncnc3n2C)cc1` [Example 62] the figure was 1 to 100 µM; with `C=C(C)C(=O)Nc1ccc(-c2c(-c3ccc(C(=O)N(C)C[C@@H]4CCOC4)cc3)c3c(N)ncnc3n2C)cc1` (single isomer, unassigned) [Example 473], 0.25 to 1 µM; with `C=C(C)C(=O)Nc1ccc(-c2c(C3=CC[C@@H](C(=O)NCC(C)(C)OC)CC3)c3c(N)ncnc3n2C)cc1` (single isomer, unassigned) [Example 431], 0.25 to 1 µM.
`C=CC(=O)N1CCC(n2cc(-c3c(-c4ccc(Oc5ccccc5)cc4Cl)c4c(N)ncnc4n3C)cn2)CC1` [Example 615] showed an IC50 below 0.1 µM.
Molecule `C=C(C)C(=O)Nc1ccc(-c2c(-c3ccc(C(=O)NCCF)cc3)c3c(N)ncnc3n2C)cc1` [Example 363] had a 50% inhibitory concentration (IC50) below 0.1 µM.
`C=C(C)C(=O)Nc1ccc(-c2c(-c3ccc(Oc4cccc(C)n4)cc3)c3c(N)ncnc3n2CCN2CCN(C)CC2)cc1` [Example 89] had an IC50 below 0.1 µM.
With `C=C(C)C(=O)Nc1ccc(-c2c(-c3ccc(Cc4nn[nH]n4)cc3)c3c(N)ncnc3n2C)cc1` [Example 218] the figure was 1 to 100 µM; with `C=C(C)C(=O)Nc1ccc(-c2c(-c3ccc(Oc4ccc(Cl)cn4)c(O)c3)c3c(N)ncnc3n2C)cc1` [Example 119], 1 to 100 µM; with `C=C(C)C(=O)Nc1ccc(-c2c(-c3ccc(Oc4nccc(C)n4)c(F)c3)c3c(N)ncnc3n2C)c(CN(C)C)c1` [Example 555], below 0.1 µM.

By IC50 is commonly meant the midpoint of a concentration-inhibition curve. A lower IC50 goes with higher potency.
